Reference: a compilation of properties of binary mixtures (doi:10.1021/je300384g)

Assay: xn = mol fraction of the nth substance listed
Conditions: 101 kPa

CCCC[N+]1(C)CCCC1.N#C[N-]C#N + CCCO
speed of sound [m/s]
Conditions	298.15 K	313.15 K	328.15 K
x2 = 0	1810	1773	–
x2 = 0.0669	1796	1758	1722
x2 = 0.1894	1766	1728	1690
x2 = 0.2912	–	1695	1657
x2 = 0.3998	1693	–	1615
x2 = 0.514	–	1598	–
x2 = 0.597	1590	1549	1509
x2 = 0.6944	1523	1480	–
x2 = 0.8002	1434	–	1346
x2 = 0.894	1339	1292	1247
x2 = 0.9437	1281	1233	1186

CC(C)O + CCCC[N+]1(C)CCCC1.N#C[N-]C#N
x1 = 1
Conditions	speed of sound [m/s]
313.15 K	1088
328.15 K	1034

CCCC[N+]1(C)CCCC1.N#C[N-]C#N + CC(C)O
speed of sound [m/s]
Conditions	298.15 K	313.15 K	328.15 K
x2 = 0	1810	1773	1736
x2 = 0.0466	–	1761	1724
x2 = 0.0896	1789	–	1713
x2 = 0.1849	1761	1723	1685
x2 = 0.2967	1723	1684	1646
x2 = 0.4039	1676	1637	1598
x2 = 0.5056	1622	–	1543
x2 = 0.6018	1559	1518	1478
x2 = 0.6997	1483	1440	1398
x2 = 0.8066	1382	–	1293
x2 = 0.892	–	1240	–
x2 = 0.9461	–	1170	1120

CCCO + CCCC[N+]1(C)CCCC1.N#C[N-]C#N
x1 = 1
Conditions	speed of sound [m/s]
298.15 K	1206
313.15 K	1155
328.15 K	1105

CCCC[N+]1(C)CCCC1.N#C[N-]C#N + CCCCO
speed of sound [m/s]
Conditions	298.15 K	313.15 K	328.15 K
x2 = 0	–	–	1736
x2 = 0.0464	1799	1761	1724
x2 = 0.0945	1787	1749	1712
x2 = 0.1898	1759	1720	–
x2 = 0.299	1720	1680	1642
x2 = 0.4012	1674	1635	1596
x2 = 0.4989	1624	1583	1544
x2 = 0.5996	1564	1522	–
x2 = 0.6947	1500	1457	–
x2 = 0.7995	1420	–	1333
x2 = 0.8965	1339	1293	1247
x2 = 0.9464	1295	1246	1199

CCCCO + CCCC[N+]1(C)CCCC1.N#C[N-]C#N
x1 = 1
Conditions	speed of sound [m/s]
298.15 K	1240
313.15 K	1190
328.15 K	1140
